Test results published in PubChem BioAssay (NCI).
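Step 1: Grow cells in 96-well plates. Step 2: Expose to compound for 48 hours at 5 concentrations. Step 3: Interpolate endpoints linearly; if unreached, use highest concentration. GI50 is the concentration that inhibits growth by half. The concentration for full growth arrest is given as TGI.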

Tests used:
Assay in all cases: NCI tumour cell line growth inhibition, 48 h
HCT-116 colon = test system: HCT-116 colon
SF-295 CNS = test system: SF-295 CNS
MDA-MB-468 breast = test system: MDA-MB-468 breast
SNB-19 CNS = test system: SNB-19 CNS
SW-620 colon = test system: SW-620 colon
UO-31 renal = test system: UO-31 renal
HCT-15 colon = test system: HCT-15 colon
IGROV1 ovarian = test system: IGROV1 ovarian
LOX IMVI melanoma = test system: LOX IMVI melanoma
K-562 leukemia = test system: K-562 leukemia
SN12C renal = test system: SN12C renal
HOP-92 NSCLC = test system: HOP-92 NSCLC
CAKI-1 renal = test system: CAKI-1 renal
HOP-62 NSCLC = test system: HOP-62 NSCLC
ACHN renal = test system: ACHN renal
NCI-H460 lung = test system: NCI-H460 lung
UACC-62 melanoma = test system: UACC-62 melanoma
786-0 renal = test system: 786-0 renal
MOLT-4 leukemia = test system: MOLT-4 leukemia
HCC-2998 colon = test system: HCC-2998 colon
EKVX NSCLC = test system: EKVX NSCLC
SNB-75 CNS = test system: SNB-75 CNS
T-47D breast = test system: T-47D breast
SK-MEL-2 melanoma = test system: SK-MEL-2 melanoma
TK-10 renal = test system: TK-10 renal
CCRF-CEM leukemia = test system: CCRF-CEM leukemia
M14 melanoma = test system: M14 melanoma
RXF 393 renal = test system: RXF 393 renal
SK-MEL-28 melanoma = test system: SK-MEL-28 melanoma
MDA-MB-231 breast = test system: MDA-MB-231 breast
SF-268 CNS = test system: SF-268 CNS
KM12 colon = test system: KM12 colon
SK-OV-3 ovarian = test system: SK-OV-3 ovarian
NCI-H522 lung = test system: NCI-H522 lung
UACC-257 melanoma = test system: UACC-257 melanoma
U251 CNS = test system: U251 CNS
HT29 colon = test system: HT29 colon
OVCAR-3 ovarian = test system: OVCAR-3 ovarian
MCF7 breast = test system: MCF7 breast
A549 NSCLC = test system: A549 NSCLC
NCI-H226 lung = test system: NCI-H226 lung
OVCAR-4 ovarian = test system: OVCAR-4 ovarian
MDA-MB-435 = test system: MDA-MB-435
MALME-3M melanoma = test system: MALME-3M melanoma
OVCAR-8 ovarian = test system: OVCAR-8 ovarian
COLO 205 colon = test system: COLO 205 colon
OVCAR-5 ovarian = test system: OVCAR-5 ovarian
SK-MEL-5 melanoma = test system: SK-MEL-5 melanoma
NCI-H23 lung = test system: NCI-H23 lung
HS 578T breast = test system: HS 578T breast
BT-549 breast = test system: BT-549 breast
SF-539 CNS = test system: SF-539 CNS
NCI/ADR-RES ovarian = test system: NCI/ADR-RES ovarian
HL-60(TB) leukemia = test system: HL-60(TB) leukemia
A498 renal = test system: A498 renal
DU-145 prostate = test system: DU-145 prostate

## CCn1c(SCC(=O)Nc2ccc(-c3nc4ccccc4[nH]3)cc2)nc2ccccc2c1=O
HCT-116 colon
  GI50: 1750 nM
  TGI: 3130 nM
SF-295 CNS
  GI50: 1670 nM
  TGI: 3090 nM
MDA-MB-468 breast
  GI50: 1560 nM
  TGI: 3040 nM
SNB-19 CNS
  GI50: 1750 nM
  TGI: 3310 nM
SW-620 colon
  GI50: 1870 nM
  TGI: 3500 nM
UO-31 renal
  GI50: 1530 nM
  TGI: 2880 nM
HCT-15 colon
  GI50: 1720 nM
  TGI: 3300 nM
IGROV1 ovarian
  GI50: 1690 nM
  TGI: 3330 nM
LOX IMVI melanoma
  GI50: 1700 nM
  TGI: 3100 nM
K-562 leukemia
  GI50: 2910 nM
  TGI: > 100000 nM
SN12C renal
  GI50: 1470 nM
  TGI: 2820 nM
HOP-92 NSCLC
  GI50: 1660 nM
  TGI: 4050 nM
CAKI-1 renal
  GI50: 1780 nM
  TGI: 3290 nM
HOP-62 NSCLC
  GI50: 1700 nM
  TGI: 3180 nM
ACHN renal
  GI50: 1700 nM
  TGI: 3070 nM
NCI-H460 lung
  GI50: 1770 nM
  TGI: 3290 nM
UACC-62 melanoma
  GI50: 1560 nM
  TGI: 2930 nM
786-0 renal
  GI50: 1650 nM
  TGI: 3020 nM
MOLT-4 leukemia
  GI50: 4210 nM
  TGI: > 100000 nM
HCC-2998 colon
  GI50: 2040 nM
  TGI: 4890 nM
EKVX NSCLC
  GI50: 1840 nM
  TGI: 3900 nM
SNB-75 CNS
  GI50: 1290 nM
  TGI: 2610 nM
T-47D breast
  GI50: 1710 nM
  TGI: 3490 nM
SK-MEL-2 melanoma
  GI50: 1910 nM
  TGI: 3950 nM
TK-10 renal
  GI50: 1800 nM
  TGI: 3260 nM
CCRF-CEM leukemia
  GI50: 25000 nM
  TGI: > 100000 nM
M14 melanoma
  GI50: 1700 nM
  TGI: 3150 nM
RXF 393 renal
  GI50: 1710 nM
  TGI: 3190 nM
SK-MEL-28 melanoma
  GI50: 1680 nM
  TGI: 3050 nM
MDA-MB-231 breast
  GI50: 1820 nM
  TGI: 3350 nM
SF-268 CNS
  GI50: 2060 nM
  TGI: 4560 nM
KM12 colon
  GI50: 2500 nM
  TGI: 6490 nM
SK-OV-3 ovarian
  GI50: 1930 nM
  TGI: 3920 nM
NCI-H522 lung
  GI50: 1770 nM
  TGI: 3510 nM
UACC-257 melanoma
  GI50: 1790 nM
  TGI: 3450 nM
U251 CNS
  GI50: 1750 nM
  TGI: 3390 nM
HT29 colon
  GI50: 1990 nM
  TGI: 4260 nM
OVCAR-3 ovarian
  GI50: 1780 nM
  TGI: 3280 nM
MCF7 breast
  GI50: 1550 nM
  TGI: 3000 nM
A549 NSCLC
  GI50: 1740 nM
  TGI: 3590 nM
NCI-H226 lung
  GI50: 1670 nM
  TGI: 3600 nM
OVCAR-4 ovarian
  GI50: 1750 nM
  TGI: 3200 nM
MDA-MB-435
  GI50: 1730 nM
  TGI: 3110 nM
MALME-3M melanoma
  GI50: 1640 nM
  TGI: 3020 nM
OVCAR-8 ovarian
  GI50: 2090 nM
  TGI: 4600 nM
COLO 205 colon
  GI50: 2300 nM
  TGI: 4270 nM
OVCAR-5 ovarian
  GI50: 1480 nM
  TGI: 2980 nM
SK-MEL-5 melanoma
  GI50: 1780 nM
  TGI: 3330 nM
NCI-H23 lung
  GI50: 2040 nM
  TGI: 4730 nM
HS 578T breast
  GI50: 2060 nM
  TGI: 4660 nM
BT-549 breast
  GI50: 1500 nM
  TGI: 2860 nM
SF-539 CNS
  GI50: 1760 nM
  TGI: 3150 nM
NCI/ADR-RES ovarian
  GI50: 1820 nM
  TGI: 3650 nM
HL-60(TB) leukemia
  GI50: 2460 nM
  TGI: 6020 nM
A498 renal
  GI50: 1610 nM
  TGI: 3180 nM
DU-145 prostate
  GI50: 2020 nM
  TGI: 3990 nM
